Consider 22 molecules from patent US10882838B2, “Cannabinergic compounds and uses thereof” (Northeastern University, priority 2012, dated 2021).

Molecules are shown by their SMILES. Read-outs that look alike come from different tables or passages of the source.

One series concerns the target CB1 receptor (Rattus norvegicus (Rat), UniProt P20272). Description: rCB1 competition-equilibrium binding with [3H]CP-55,940, rat brain membranes. The method, boiled down:
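Rat brain membranes were used for competition-equilibrium binding against [3H]CP-55,940. IC50 came from nonlinear regression and Ki was calculated from IC50, using at least three independent experiments.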

Another series deals with hCB2 receptor (Homo sapiens (Human), UniProt P34972). Description: hCB2 competition-equilibrium binding with [3H]CP-55,940, membranes of HEK293 cells expressing hCB2.
Series [1] in a line: Stability in plasma (half-life). The series is classed as in vitro ADME, rat or monkey. To be noted: method: 200 μM in plasma, 37°; species of plasma not given. How it is done:
The designed compounds carry a side chain that is susceptible to plasma esterase activity, inviting their rapid deactivation. Thus, it is important to characterize the rate of compound metabolism in isolated rat or monkey plasma. As a preliminary predictor of oral stability, this assay will also be done in buffers at pH 2 (to emulate the stomach) and pH 7.4 (physiological pH). Compounds (10 mM in DMSO) are diluted in plasma, acetonitrile or buffer to a concentration of 200 μM and incubated in a 37° shaking water bath for 2 hours. Samples are taken periodically, diluted 1:4 with acetonitrile and centrifuged to precipitate protein. The resulting supernatant is analyzed by HPLC to predict expected in vivo plasma half-lives.

The target in a further series is mCB2 receptor (Mus musculus (Mouse), UniProt P47936). Description: mCB2 competition-equilibrium binding with [3H]CP-55,940, membranes of HEK293 cells expressing mCB2.
Where [2] appears, read: rat brain membranes, [3H]CP-55,940, read-out: rCB1 Ki.
Setting [3] is: HEK293 cells expressing mCB2, [3H]CP-55,940, read-out: mCB2 Ki.
[4] abbreviates: HEK293 cells expressing hCB2, [3H]CP-55,940, read-out: hCB2 Ki.

One may read the Ki as the dissociation constant of the complex between target and ligand, obtained from inhibition or displacement. What is called half-life is how long it takes for the measured level to halve.

For the molecule `CC1=CCC2[C@@H](C1)c1c(O)cc(C(C)(C)C(=O)OCCCCC#N)cc1OC2(C)C` (stereo in doubt) [Compound 1.3, 4-cyanobutyl-2-((6aS, 10aR)-6a, 7, 10, 10a-tetrahydro-1-hydroxy-6,6,9-trimethyl-6H-benzo[c]chromen-3-yl)-2-methylpropanoate], the results for the Ki at CB1 receptor (setting [2]) and at hCB2 receptor were 0.7 nM and 0.8 nM, respectively. Moreover, the half-life at 200 μM in series [1] is 40 min.

Consider `CC1=CC[C@H]2[C@@H](C1)c1c(O)cc(C(C)(C)C(=O)OCCCCBr)cc1OC2(C)C` [Compound 1.2, 4-bromobutyl-2-((6aS,10aR)-6a,7,10,10a-tetrahydro-1-hydroxy-6,6,9-trimethyl-6H-benzochromen-3-yl)-2-methylpropanoate], for which the values for the Ki at CB1 receptor (setting [2]), at mCB2 receptor (setting [3]) and on hCB2 receptor (setting [4]) were 1.2 nM, 0.6 nM and 0.8 nM, respectively. Further, the “t 1/2” value in series [1] was 15 min.

Consider `CC1=CC[C@@H]2[C@@H](C1)c1c(O)cc(C(C)(C)C(=O)OCCCCn3ccnc3)cc1OC2(C)C` [Compound 1.6, 4-(1H-imidazol-1-yl)butyl 2-((6aR,10aR)-6a,7,10,10a-tetrahydro-1-hydroxy-6,6,9-trimethyl-6H-benzo[c]chromen-3-yl)-2-methylpropanoate], for which the figures for the Ki on CB1 receptor (setting [2]), at mCB2 receptor (setting [3]) and on hCB2 receptor (setting [4]) were 29.1 nM, 11.6 nM and 8.7 nM, respectively. The half-life at 200 μM in series [1] was determined as 120 min.

In the case of `CC1=CC[C@@H]2[C@@H](C1)c1c(O)cc(C(C)(C)C(=O)OCCCn3ccnc3)cc1OC2(C)C` [Compound 1.10, 3-(1H-imidazol-1-yl)propyl-2-((6aR,10aR)-6a,7,10,10a-tetrahydro-1-hydroxy-6,6,9-trimethyl-6H-benzo[c]chromen-3-yl)-2-methylpropanoate], the Ki on CB1 receptor (setting [2]) came out at 3.4 nM; at mCB2 receptor (setting [3]) it was 2 nM; at hCB2 receptor (setting [4]) it was 1.2 nM. The molecule also showed a half-life at 200 μM in series [1] of 240 min.

Take `CCCCOC(=O)C(C)c1cc(O)c2c(c1)OC(C)(C)[C@@H]1CC=C(C)C[C@@H]21` (stereo partly drawn) [Compound 1.12, Butyl 2-((6aR,10aR)-1-hydroxy-6,6,9-trimethyl-6a,7,10,10a-tetrahydro-6H-benzo[c]chromen-3-yl)propanoate]: the figures for the Ki on CB1 receptor (setting [2]), at mCB2 receptor (setting [3]) and on hCB2 receptor (setting [4]) were 0.7 nM, 1.2 nM and 1 nM, respectively. In addition, the half-life at 200 μM in series [1] is 3 min.

Consider `CCCCOC(=O)[C@H](C)c1cc(O)c2c(c1)OC(C)(C)[C@@H]1CC=C(C)C[C@@H]21` [Compound 1.14, (R)-butyl 2-((6aR,10aR)-1-hydroxy-6,6,9-trimethyl-6a,7,10,10a-tetrahydro-6H-benzo[c]chromen-3-yl)propanoate], for which the figures for the Ki on CB1 receptor (setting [2]), at mCB2 receptor (setting [3]) and at hCB2 receptor (setting [4]) were 0.9 nM, 1.4 nM and 1.4 nM, respectively. Besides, in series [1], the half-life at 200 μM amounted to 7 min.

Take `CCCCOC(=O)[C@@H](C)c1cc(O)c2c(c1)OC(C)(C)[C@@H]1CC=C(C)C[C@@H]21` [Compound 1.16, (S)-butyl 2-((6aR,10aR)-1-hydroxy-6,6,9-trimethyl-6a,7,10,10a-tetrahydro-6H-benzo[c]chromen-3-yl)propanoate]: the values for the inhibition constant Ki at CB1 receptor (setting [2]), on mCB2 receptor (setting [3]) and on hCB2 receptor (setting [4]) were 2.4 nM, 1.3 nM and 1.5 nM, respectively. In series [1], the half-life at 200 μM amounted to 6 min.

Consider `CC1=CC[C@@H]2[C@@H](C1)c1c(O)cc(C3(C(=O)OCCCCBr)CCC3)cc1OC2(C)C` [Compound 1.18, 4-bromobutyl 1-((6aR,10aR)-1-hydroxy-6,6,9-trimethyl-6a,7,10,10a-tetrahydro-6H-benzo[c]chromen-3-yl)cyclobutanecarboxylate], for which the Ki is 0.3 nM at CB1 receptor (setting [2]), 3.7 nM on mCB2 receptor (setting [3]) and 0.7 nM on hCB2 receptor (setting [4]). The half-life at 200 μM in series [1] worked out at 50 min.

In the case of `CC1=CC[C@@H]2[C@@H](C1)c1c(O)cc(C3(C(=O)OCCCCC#N)CCC3)cc1OC2(C)C` [Compound 1.19, 4-cyanobutyl 1-((6aR,10aR)-1-hydroxy-6,6,9-trimethyl-6a,7,10,10a-tetrahydro-6H-benzo[c]chromen-3-yl)cyclo butanecarboxylate], the values for the Ki at CB1 receptor (setting [2]), on mCB2 receptor (setting [3]) and on hCB2 receptor (setting [4]) were 0.9 nM, 1.5 nM and 1.8 nM, respectively. This molecule returned a half-life at 200 μM in series [1] of 107 min.

In the case of `CCCCOC(=O)C1(c2cc(O)c3c(c2)OC(C)(C)[C@@H]2CC=C(C)C[C@@H]32)CCC1` [Compound 1.20, butyl 1-((6aR,10aR)-1-hydroxy-6,6,9-trimethyl-6a,7,10,10a-tetrahydro-6H-benzo[c]chromen-3-yl)cyclobutane carboxylate], the Ki was determined as 0.7 nM at CB1 receptor (setting [2]), 0.7 nM on mCB2 receptor (setting [3]) and 0.4 nM at hCB2 receptor (setting [4]). The same molecule yielded a half-life at 200 μM in series [1] of 40 min.

Regarding `CC1=CC[C@@H]2[C@@H](C1)c1c(O)cc(C(C)(C)C(=O)OCCCCN3CCOCC3)cc1OC2(C)C` [Compound 1.24, 4-morpholinobutyl 2-((6aR,10aR)-1-hydroxy-6,6,9-trimethyl-6a,7,10,10a-tetrahydro-6H-benzo[c]chromen-3-yl)-2-methylpropanoate], the inhibition constant Ki at CB1 receptor (setting [2]) was found to be 33.8 nM; at mCB2 receptor (setting [3]) it was 71.8 nM; at hCB2 receptor (setting [4]) it was 39.9 nM. In addition, the half-life at 200 μM in series [1] is 68 min.

For `CC1=CC[C@@H]2[C@@H](C1)c1c(O)cc(C(C)(C)C(=O)OCCCN3CCOCC3)cc1OC2(C)C` [Compound 1.25, 3-morpholinopropyl 2-((6aR,10aR)-1-hydroxy-6,6,9-trimethyl-6a,7,10,10a-tetrahydro-6H-benzo[c]chromen-3-yl)-2-methylpropanoate], the Ki at CB1 receptor came to 15.2 nM; at mCB2 receptor, 10.4 nM; at hCB2 receptor it was 8.7 nM. In series [1], this molecule had a half-life at 200 μM of 200 min.

As to `CC1=CC[C@@H]2[C@@H](C1)c1c(O)cc(CC(=O)OCCCCBr)cc1OC2(C)C` [Compound 1.27, 4-bromobutyl-2-((6aR,10aR)-6a,7,10,10a-tetrahydro-1-hydroxy-6,6,9-trimethyl-6H-benzo[c]chromen-3-yl)acetate], the results for the Ki at CB1 receptor (setting [2]), at mCB2 receptor (setting [3]) and at hCB2 receptor (setting [4]) were 2.2 nM, 11.6 nM and 7.1 nM, respectively. In series [1], this molecule registered a half-life at 200 μM of 3 min.

Turning to `CC1=CC[C@@H]2[C@@H](C1)c1c(O)cc(CC(=O)OCCCCC#N)cc1OC2(C)C` [Compound 1.28, 4-cyanobutyl-2-((6aR,10aR)-6a,7,10,10a-tetrahydro-1-hydroxy-6,6,9-trimethyl-6H-benzo[c]chromen-3-yl)acetate], the Ki at CB1 receptor (setting [2]) came out at 14.3 nM; at mCB2 receptor (setting [3]), 2.1 nM; at hCB2 receptor (setting [4]) it was 1.2 nM. In addition, the half-life at 200 μM in series [1] was determined as 4.8 min.

For the molecule `CCCCOC(=O)Cc1cc(O)c2c(c1)OC(C)(C)[C@@H]1CC=C(C)C[C@@H]21` [Compound 1.29, Butyl-2-((6aR,10aR)-6a,7,10,10a-tetrahydro-1-hydroxy-6,6,9-trimethyl-6H-benzo[c]chromen-3-yl)acetate], the values for the inhibition constant Ki at CB1 receptor (setting [2]), at mCB2 receptor (setting [3]) and at hCB2 receptor (setting [4]) were 40.3 nM, 27 nM and 8.2 nM, respectively. In series [1], this molecule displayed a half-life at 200 μM of 5 min.

As to `CCCCOC(=O)C(C)(C)c1cc(O)c2c(c1)OC(C)(C)[C@@H]1CC[C@@H](CO)C[C@H]21` [Compound 3.9, Butyl 2-((6aR,9R,10aS)-1-hydroxy-9-(hydroxymethyl)-6,6-dimethyl-6a,7,8,9,10,10a-hexahydro-6H-benzo[c]chromen-3-yl)-2-methylpropanoate], the results for the Ki at CB1 receptor (setting [2]), at mCB2 receptor (setting [3]) and at hCB2 receptor (setting [4]) were 2.4 nM, 4.3 nM and 6.5 nM, respectively.

Molecule `CCCCCCC(C)(C)c1cc(O)c2c(c1)OC(C)(C)[C@@H]1CCC(=O)OC[C@@H]21` [Compound 3.10, (5aR,11bR)-11-hydroxy-6,6-dimethyl-9-(2-methyloctan-2-yl)-4,5,5a,6-tetrahydro-1H-oxepino[4,3-c]chromen-3(11bH)-one] yielded a half-life at 200 μM in series [1] of 15 min.

As to `CCOC(=O)C(C)(C)c1cc(OC)c(-c2cccc(C#N)c2)c(OC)c1` [Compound 4.1, Ethyl 2-(3′-cyano-2,6-dimethoxybiphenyl-4-yl)-2-methylpropanoate], the inhibition constant (Ki) at CB1 receptor (setting [2]), at mCB2 receptor (setting [3]) and on hCB2 receptor (setting [4]) was over 1000 nM in each case.

As to `CCOC(=O)C(C)(C)c1cc(OC)c(-c2cc(C)cc(C)c2)c(OC)c1` [Compound 4.3, Ethyl 2-(2,6-dimethoxy-3′,5′-dimethylbiphenyl-4-yl)-2-methylpropanoate], the Ki on CB1 receptor (setting [2]), at mCB2 receptor (setting [3]) and on hCB2 receptor (setting [4]) was 1000 nM each time.

As to `CCOC(=O)C(C)(C)c1cc(O)c(-c2cc(C)cc(C)c2)c(O)c1` [Compound 4.4, Ethyl 2-(2,6-dihydroxy-3′,5′-dimethylbiphenyl-4-yl)-2-methylpropanoate], the results for the inhibition constant Ki at CB1 receptor (setting [2]), on mCB2 receptor (setting [3]) and at hCB2 receptor (setting [4]) were 941 nM, 36 nM and 48.8 nM, respectively.

Consider `CCOC(=O)C(C)(C)c1cc(O)c(-c2cc(C)cc(C)c2)c(OC)c1` [Compound 4.5, Ethyl 2-(2-hydroxy-6-methoxy-3′,5′-dimethylbiphenyl-4-yl)-2-methylpropanoate], for which the inhibition constant (Ki) on CB1 receptor (setting [2]) was found to be 1000 nM; on mCB2 receptor (setting [3]), 108 nM; on hCB2 receptor (setting [4]), 375 nM.

For `CCOC(=O)C(C)(C)c1cc(OC)c(-c2cc(Cl)cc(Cl)c2)c(OC)c1` [Compound 4.6, Ethyl 2-(3′,5′-dichloro-2,6-dimethoxybiphenyl-4-yl)-2-methylpropanoate], the Ki at CB1 receptor (setting [2]), on mCB2 receptor (setting [3]) and on hCB2 receptor (setting [4]) was 1000 nM throughout.
